We go through 7 compounds from ChEMBL document CHEMBL1201862, “PubChem BioAssay data set” (2004).

Among the test systems are DU-145; MDA-MB-231; A549; OVCAR-8; SN12C; CAKI-1; HCC 2998; NCI/ADR-RES; COLO 205; OVCAR-5; T47D; SK-OV-3; UO-31; SF-268; MDA-N; PC-3; M14; OVCAR-3; HCT-116; Malme-3M.
Common to all, as to test: DTP human tumour cell line panel, 48 h

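Method: 48-hour compound exposure of cells in 96-well plates, five concentrations, linear interpolation of endpoints. GI50 = concentration required for 50% inhibition of growth.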 Calls of active or inactive are those of the source. Cut-off read from the data, not from the text of the source: active = GI50 up to about 1.1 µM and inactive = higher. Bounds are passed on as bounds.

Regarding `Cn1c(COC(=O)NC2CCCCC2)c(COC(=O)NC2CCCCC2)c2ccc3cc(Cl)c(Cl)cc3c21`, the GI50 (commonly the concentration giving 50% growth inhibition) with DU-145 was 28.6 µM (inactive); in the assay with MDA-MB-231 it was 10.2 µM (inactive); with A549, 48.1 µM (inactive); with OVCAR-8, 28.2 µM (inactive); in the assay on SN12C it was 11.7 µM (inactive); in the assay with CAKI-1, 2.62 µM (inactive). The GI50 in the assay with HCC 2998 was 13.7 µM (inactive); in the assay on NCI/ADR-RES, 53.1 µM (inactive); with COLO 205, 11.7 µM (inactive); in the assay on OVCAR-5, 16 µM (inactive); in the assay on T47D, 5.37 µM (inactive); in the assay on SK-OV-3 it was 22 µM (inactive). Also, the GI50 with UO-31 was 28.4 µM (inactive); in the assay on SF-268, 6.4 µM (inactive); with MDA-N, 12.6 µM (inactive); with PC-3, 15.3 µM (inactive); in the assay on M14, 16.5 µM (inactive); with OVCAR-3, 15.1 µM (inactive). For the same compound, the GI50 in the assay with HCT-116 was 7.43 µM (inactive); in the assay with Malme-3M, 6.43 µM (inactive).
As to `COC(=O)C1=C(C)NC2=C(C(=O)c3ccccc32)C1c1cn(-c2ccccc2)nc1-c1ccccc1` (stereo not given), the GI50 with DU-145 is > 100 µM (inactive); in the assay on MDA-MB-231, > 100 µM (inactive); with A549 it was 12 µM (inactive); in the assay on OVCAR-8, > 100 µM (inactive); in the assay with SN12C, > 100 µM (inactive); in the assay with CAKI-1 it was > 100 µM (inactive). Further, the GI50 was 13.6 µM (inactive) in the assay on HCC 2998; 70.6 µM (inactive) with NCI/ADR-RES; > 100 µM (inactive) in the assay with COLO 205; > 100 µM (inactive) in the assay with OVCAR-5; 20.3 µM (inactive) in the assay with T47D; > 100 µM (inactive) with SK-OV-3. In addition, the GI50 in the assay with UO-31 was 3.91 µM (inactive); in the assay with SF-268, > 45.6 µM (inactive); in the assay with MDA-N, > 61.7 µM (inactive); in the assay on PC-3, 4.36 µM (inactive); in the assay with M14, > 100 µM (inactive); in the assay with OVCAR-3 it was > 48.1 µM (inactive). For the same compound, the figures for the GI50 in the assay with HCT-116 and in the assay on Malme-3M were 12.1 µM (inactive) and > 84.7 µM (inactive), respectively.
In the case of `OC(c1ccc(F)cc1)(c1ccc(F)cc1)C1CC1`, the GI50 in the assay with DU-145 was 49.9 µM (inactive); with MDA-MB-231, 36.1 µM (inactive); with A549 it was 26.6 µM (inactive); in the assay with OVCAR-8, 37.2 µM (inactive); in the assay on SN12C it was 20.9 µM (inactive); with CAKI-1, 25.3 µM (inactive). The GI50 was 20.5 µM (inactive) in the assay on HCC 2998; 21.3 µM (inactive) in the assay on NCI/ADR-RES; 16.2 µM (inactive) with COLO 205; 37.3 µM (inactive) in the assay on OVCAR-5; 38 µM (inactive) in the assay on T47D; 37.9 µM (inactive) with SK-OV-3. Further, the GI50 with UO-31 is 21.3 µM (inactive); in the assay with SF-268 it was 32.2 µM (inactive); in the assay on MDA-N, 19.4 µM (inactive); in the assay on PC-3, 20 µM (inactive); in the assay on M14, 21.5 µM (inactive); with OVCAR-3 it was 32.5 µM (inactive). The GI50 in the assay with HCT-116 is 26.8 µM (inactive); with Malme-3M, 23.9 µM (inactive).
`CCCCCCCCCCCCOP(=O)(O)OCC(N)C(=O)O` (stereo not given): the GI50 in the assay with DU-145 was 83.4 µM (inactive); in the assay on MDA-MB-231 it was 23.9 µM (inactive); in the assay on A549, 24.7 µM (inactive); with OVCAR-8 it was 38.5 µM (inactive); in the assay on SN12C, 22.1 µM (inactive); in the assay on CAKI-1 it was 30.1 µM (inactive). Further, the GI50 in the assay on HCC 2998 is 29.8 µM (inactive); in the assay with NCI/ADR-RES, 36.3 µM (inactive); in the assay with COLO 205 it was > 100 µM (inactive); in the assay on OVCAR-5, 40.8 µM (inactive); with T47D, > 100 µM (inactive); with SK-OV-3, 17.1 µM (inactive). The GI50 in the assay with UO-31 is 15.5 µM (inactive); with SF-268, 26.8 µM (inactive); with MDA-N, 21.2 µM (inactive); in the assay on PC-3, 15.3 µM (inactive); in the assay on M14, 68.1 µM (inactive); in the assay on OVCAR-3, 17.3 µM (inactive). The GI50 in the assay on HCT-116 was 12.1 µM (inactive); with Malme-3M, > 100 µM (inactive).
Take `CN(C)c1ccc(/C=C(\NC(=O)c2ccccc2)C(=O)NC(CCC(=O)O)C(=O)O)cc1` (stereo not given): the GI50 with DU-145, in the assay on MDA-MB-231, in the assay with A549, in the assay on OVCAR-8, in the assay on SN12C and with CAKI-1 was > 100 µM (inactive) each time. Moreover, the GI50 in the assay with HCC 2998, in the assay on NCI/ADR-RES, in the assay with COLO 205, in the assay on OVCAR-5, in the assay on T47D and in the assay with SK-OV-3 was > 100 µM (inactive) throughout. The GI50 in the assay on UO-31, in the assay on SF-268, in the assay on MDA-N, in the assay on PC-3, with M14 and in the assay on OVCAR-3 was > 100 µM (inactive) in each case. In addition, the GI50 in the assay on HCT-116 and with Malme-3M was > 100 µM (inactive) each time.
On to `CCN(CC)CCOC(=O)Cc1cccc2c(=O)cc(-c3ccccc3)oc12`, for which the GI50 with DU-145 is 40.3 µM (inactive); in the assay on MDA-MB-231 it was 26.4 µM (inactive); in the assay with A549, 6.62 µM (inactive); in the assay with OVCAR-8, 51.4 µM (inactive); in the assay with SN12C, 51.2 µM (inactive); in the assay on CAKI-1, 13.6 µM (inactive). Besides, the GI50 with HCC 2998 was 44.6 µM (inactive); in the assay on NCI/ADR-RES, 50 µM (inactive); in the assay with COLO 205, 38.4 µM (inactive); with OVCAR-5 it was 57.9 µM (inactive); in the assay with T47D, 30.4 µM (inactive); in the assay on SK-OV-3, 48.5 µM (inactive). Moreover, the GI50 in the assay on UO-31 is 5.79 µM (inactive); in the assay on SF-268, 47.2 µM (inactive); with MDA-N, 22.3 µM (inactive); in the assay with PC-3 it was 49.3 µM (inactive); in the assay on M14, 41.7 µM (inactive); with OVCAR-3, 52.8 µM (inactive). Moreover, the GI50 in the assay with HCT-116 was 48.3 µM (inactive); in the assay on Malme-3M it was 39.3 µM (inactive).
As to `CC(C)C[C@H](NC(=O)[C@H](Cc1ccccc1)NC(=O)c1cnccn1)B(O)O` [BORTEZOMIB], the GI50 with DU-145, in the assay on MDA-MB-231, with A549, in the assay on OVCAR-8, in the assay with SN12C and in the assay on CAKI-1 was < 0.01 µM (active) each time. Moreover, the concentration for 50% growth inhibition (GI50) in the assay on HCC 2998 is < 0.01 µM (active); with NCI/ADR-RES, 0.0141 µM (active); in the assay on COLO 205, < 0.01 µM (active); in the assay with OVCAR-5, < 0.01 µM (active); in the assay with T47D it was < 0.01 µM (active); in the assay on SK-OV-3 it was 0.0329 µM (active). Further, the GI50 in the assay on UO-31, with SF-268, in the assay on MDA-N, in the assay on PC-3, in the assay on M14 and with OVCAR-3 was < 0.01 µM (active) throughout. Besides, the GI50 in the assay with HCT-116 and in the assay on Malme-3M was < 0.01 µM (active) throughout.
